# According to paper PMC4838890, “Dynamic and flexible H3K9me3 bridging via HP1β dimerization establishes a plastic state of condensed chromatin” (Nature Communications, 2016):
# What was measured:
# H3K9me3 oligonucleosomes [1] = experiment: Chromatin coprecipitation, H3K9me3 oligonucleosomes; format: binding, Xenopus laevis; settings: 6.7 nM oligonucleosomes, 1 μM protein, 150 mM NaCl, 5 mM MgCl2, 1 h on ice
# Description: 6.7 nM oligonucleosomes were incubated with 1 μM recombinant protein in 100 μl binding buffer (10 mM triethanolamine (pH 7.5), 150 mM NaCl, 5 mM MgCl2, 0.1 mM EDTA, 0.1% (v/v) Triton-X100) for 1 h on ice. Precipitated chromatin complexes were recovered by centrifugation at 16,100g for 30 min at 4°C. Pellets were washed once with 0.5 ml binding buffer and centrifuged for 15 min at 4 °C. Precipitated material was resuspended in 10 μl 1 × SDS loading buffer and boiled for 5 min before running on SDS–PAGE.
# Supplementary Table 1: Summary of conditions used in the different experiments of this study.
# experiment result modification template Temp. [NaCl] [MgCl2]
# chromatin Fig. 1e,f; Fig. S1f-h; H3K9me3 oligo- 4 150 5
# H3K9me3 oligonucleosomes [2] = experiment: Chromatin sedimentation (clustering), H3K9me3 oligonucleosomes; format: biochemical, Xenopus laevis; settings: 150 mM NaCl, saturating protein (5 μM) or titration, EtBr fluorescence, n=3
# Description: Figure 3 hHP1β clusters oligonuclesomal arrays in dependence of H3K9me3. (a) Oligonucleosomes (2.5 nM) were incubated with increasing concentrations of hHP1β WT or I161A at 150 mM NaCl. DNA remaining in the supernatant after centrifugation was incubated with EtBr and measured by fluorescence reading. Data were normalized to amounts in absence of added protein. Averages of three independent experiments are plotted; error bars represent s.d.; n=3. (b) Analysis of the hydrodynamic radius of oligonucleosomes (10 nM; DNA labelled with ATTO 610) in the presence of increasing concentrations of hHP1β WT or I161A by FCS at 150 mM NaCl. For details on experimental setup see Supplementary Fig. 3. Error bars represent s.d.; n=3. (c) Oligonucleosomes were reconstituted after mixing H3K9me0 and H3K9me3 octamers at different ratio. Chromatin precipitation analysis at 150 mM NaCl was carried out with hHP1β WT at saturating concentration. Data are presented as in a. (d) Precipitation behaviour of oligonucleosomes (2.5 nM) was analysed at different concentrations of NaCl with hHP1β WT at saturating concentration. Data are presented as in a. (e) H3K9me3-containing chromatin was reconstituted using wild-type core histones or tailless H2A, H2B or H4. Oligonucleosomes (2.5 nM) were incubated with increasing concentrations of hHP1β WT at 150 mM NaCl. Data are presented as in a. (f) Chromatin coprecipitation of hHP1β with H3K9me3-containing oligonucleosomes reconstituted with wild-type or tailless core histones at the indicated concentrations of MgCl2. Precipitated material was analysed by western blotting. The region of the western blot membrane of the experiment at 7.5 mM MgCl2 containing histones was stained with Ponceau. (g) Oligonucleosomes at 50 mM NaCl were incubated with hHP1β WT or I161A. Complexes were fixed with 0.05% (v/v) glutaraldehyde, spotted on mica surfaces and analysed by scanning force microscopy. Control, no protein added; scale bar, 100 nm. (h) Quantification of results representatively shown in g according to the classification on the top: A, extended; B, partially condensed; C, fully condensed; D; aggregates; n>50 for each condition.
# For saturating conditions, 2.7 nM oligonucleosomes were incubated with 5 μM hHP1β proteins in 100 μl sedimentation buffer (10 mM triethanolamine (pH 7.5), 150 mM NaCl, 0.1 mM EDTA) for 1 h on ice. For non-saturating conditions, 3 μM recombinant proteins were used and the NaCl concentration in the sedimentation buffer was lowered to 100 mM. After incubation, 40 μl per sample was placed into a well of a 96-well plate and kept as ‘input'. The rest was centrifuged at 16,100g for 30 min at 4°C. 40 μl supernatant was carefully removed and placed into a 96-well plate (‘output'). For quantification of chromatin DNA, the input and output samples were incubated with 40 μl 0.5 μg ml^−1 ethidium bromide and fluorescence was measured on a Plate CHAMELEON II fluorescence plate reader (Hidex, Turku, Finland) using a 360 nm (±5 nm) excitation filter and a 612 nm (±5 nm) emission filter. For each sample the ratio of DNA concentrations after and before centrifugation (output/input) was calculated.
# Supplementary Table 1: Summary of conditions used in the different experiments of this study. experiment result modification template Temp. [NaCl] [MgCl2] […]
# chromatin Fig. 1e,f; Fig. S1f-h; H3K9me3 oligo- 4 150 5 coprecipitation Fig. S2b nucleosomes
# Fig. S7d,f; Fig.S9c nucleosomes […]
# chromatin sedimentation Fig. 4a; H3K9me3 oligo- 4 150 0
# (single point) Fig. S3b nucleosomes […]
# chromatin sedimentation. oligo-(titration) Fig. 3a H3K9me3 nucleosomes 4 150 0 […]
# crosslinking Fig. S6e,f nucleosomes […]
# crosslinking Fig. S7a,b nucleosomes
# EMSA Fig. 1g; Fig. 5c; n//a RT 100 5
# 1Preincubation of oligonucleosomes and h HP1β was performed at 4 °C . Measurements wer e carried out at the in dicated te mperature.
# 2in increments o f 0 .5 mM
# 3MgCl2 was added at the end of incubation to coprecipitate oligonucleosomes a nd bound hHP1β.
# mouse fibroblasts = experiment: Subnuclear distribution of EGFP fusion proteins; format: cell-based; settings: GFP fusions transiently expressed, n >100
# Source text: Supplementary Figure 11: Subnuclear distribution of hHP1 β wild type and mutant proteins .
# (a) The indicated proteins fused to EGFP were transiently expressed in mouse fibroblast cells.
# Representative fluorescence confocal images are shown. DNA was stained with DAPI. Scale bar […]
# (b) Quantification of the subnuclear distribution of the hHP1β WT and mutant proteins analyzed as in ( a) by visual inspection. EGFP signal in each transfected cell was categoriz ed into ‘dotted’ (see WT distribution in panel a) or ‘diffuse’ (see distribution of I161A in panel a). n >100 for each condition.
# (1 picture or pasted object on this page, not shown here)
# [3] = tested on: chromatin reporter array in U2OS cells; experiment: Chromatin reporter array (LacO) unfolding; format: cell-based; settings: doxycycline 1 μg ml^−1 24 h, LacI-tethered, n>300
# Source text: Figure 7 hHP1β dimerization is required for maintaining condensed cellular chromatin states. (a) Schematic diagram of the transgene system used to test chromatin compaction effects of hHP1β. A tandem array of the construct has been integrated into the genome of U2OS mammalian cells. Dox, doxycycline; rtTA, reverse tetracycline-controlled TET-VP16 transactivator, whose binding to tetracycline responsive elements (RE) is activated by doxycycline. (b) Together with mCherry-LacI, the indicated fusion proteins were transiently expressed in U2OS cells containing the chromatin reporter array as described in a. Representative confocal images in the absence or after induction of transcription from the array with doxycycline (Dox) are shown. DNA was stained with DAPI. Inlets show enlarged chromatin reporter array; scale bar, 10 μm. (c) Quantification of the results shown in b together with results of similar experiments using additional hHP1β mutant proteins. Averages of three independent experiments are plotted; error bars represent s.d.; n>300 for each condition; asterisks represent P<0.05 according to Student's t-test.
# U2OS 2-6-3 CLTon cells[38] were kindly provided by Dr Supriya Prasanth (University of Illinois, IL, USA) and maintained in DMEM (high glucose+GlutaMax) (GIBCO/Invitrogen, Darmstadt, Germany) supplemented with 10% (v/v) TET system approved fetal bovine serum (Clontech, Saint-Germain-en-Laye, France), 50 μg ml^−1 hygromycin (Carl Roth, Karlsruhe, Germany) and 200 μg ml^−1 G418 (Clontech, Saint-Germain-en-Laye, France). For fluorescence microscopy, cells were grown on coverslips in a six-well plate without antibiotics. 500 ng plasmid DNA was transfected using Lipofectamine LTX and Plus reagent (Invitrogen, Darmstadt, Germany). 20 h post transfection, cells were treated with 1 μg ml^−1 doxycycline for 24 h for induction of rtTA expression. Cells were washed twice with PBS and fixed with 3.7% (v/v) formaldehyde/PBS for 10 min at RT. […] P values (according to Student's t-test) were calculated using GraphPad QuickCals (GraphPad, CA, USA).
# H3K9me3 peptide = biological target: T1, H3K9me3 peptide (Homo sapiens, UniProt P68431); experiment: SPR, immobilized H3K9me3 peptide; format: binding; settings: 0.1 µM hHP1β WT bound, 950 RU; 1 or 20 μM free H3K9me3, 20 μM H3K9me0 peptide
# T1 construct: C-terminally biotinylated histone H3 peptides (aa 1–20)
# Description: SPR measurements were performed on a Biacore 2000 instrument (GE Healthcare, Buckinghamshire, UK) at 298 K in 10 mM triethanolamine (pH 7.5), 150 mM NaCl, 0.1 mM EDTA, 1 mM DTT, 0.005% (v/v) Tween-20. Biotinylated ligands were immobilized on streptavidin-coated sensor chips SA (GE Healthcare, Buckinghamshire, UK). Before immobilization, sensor chips were conditioned as described by the manufacturer. To obtain low surface densities (5–24 RU), 5 nM biotinylated H3 peptide was injected at a low rate of 10 μl min^−1 using varying contact times. High surface densities (>700 RU) were prepared by injecting […] peptide (10 μl min^−1) until the SA surface was saturated. Peptide-containing chips were regenerated by applying three short pulses of 0.05% (w/v) SDS followed by an injection of 1.5 M NaCl for baseline stabilization. For binding assays, hHP1β proteins were injected at […] (serial twofold dilutions) for 2 min (30 μl/min). Dissociation was recorded for up to 5 min. A streptavidin surface without ligands served as reference. In addition, blank runs were performed for double referencing. Data evaluation was performed by steady-state analysis assuming a Langmuir 1:1 binding model using BIAevaluation 4.1 and Prism 5.04 (GraphPad, CA, USA) software. Binding to the unmodified peptides was analysed with maximum binding (RUmax) set to the corresponding values obtained with the modified peptides.
# Figure S8 Hiragami-Hamada et al.
# 20 30 one site-specific 20 30 one site-specific […]
# time [s] concentration [ μM] time [s] concentration [ μM]
# 40 two site-specific 40 one site-specific […]
# time [s] concentration [ μM]
# Supplementary Figure 8: hHP1β binds nucleosomes as dimer.
# (a) Dynamic light scattering (DLS) analysis of recombinant hHP1β WT (blue) and I161A (red).
# (b) SPR response traces of injection of hHP1β WT into Biacore cells containing biotinylated H3K9me3-peptide immobilized on a sensory chip via covalently coated streptavidin. Immobilized peptide was at 24
# RU. Injection series are from 0.024 to 50 µM protein concentration.
# (c) Blot of signal over concentration of the titration in (b) to deduce an apparent Kd value. Best fitting was achieved by one site-specific binding model.
# (d ) Same analysis as in (b) but with hHP1β I161A.
# (e) Blot of signal over concentration of the titration in (d) to deduce an apparent Kd value. […]
# (also on this page, place not known: dimer . hHP1 β H3K9me3 - se nsory ( b) site -specific ( b) hHP1 β ( d) site -specific hHP1 β modifi ed H3K9me3 -mononucleosomes H3 -tails -30 -50 -8 -4 200 -10 110 -50 -10 -30 [μM] [μM] -10 190 150 -10 110 200 -10 110 μl/min μl/min μl/min -50 150 response [RU] response [RU] response [RU] response [RU] response [RU] [μM] 10 50 response [RU]40 0 0 [μM] 10 30 50 response [RU] 40 0 0 40 [μM] 10 30 50 response [RU] 140 40 0 120 0 40 response [RU] response [RU] response [RU] Kd Kd μM Kd μM 0.8 0.6 0.4 0.2 0 1 1.0 0.8 0.6 0.4 0.2 0.0 mass fraction)
Substance,recovery with H3K9me3 oligonucleosomes (H3K9me3 oligonucleosomes [1]),"chromatin clustering/aggregation, H3K9me3 (H3K9me3 oligonucleosomes [2])",subnuclear distribution (mouse fibroblasts),unfolding of the array on activation [3],competition of residual hHP1β WT SPR signal by free H3 peptide (H3K9me3 peptide)
"hHP1β W42A: CD point mutant of hHP1β, abolishing H3K9me3 binding",loss of recovery of hHP1β with H3K9me3 oligonucleosomes,failed to cluster oligonucleosomes,diffuse distribution,behaved very similar to the WT protein,
H3K9me3 peptide: free H3K9me3 tail peptide used as competitor [reference compound],,,,,competed specifically
H3K9me0: free unmodified H3 tail peptide used as competitor [reference compound],,,,,competed specifically with free H3K9me3 peptide ligand but not H3K9me0
